According to patent US10597388B2, “Pyridazinone herbicides” (FMC CORPORATION, priority 2014, dated 2020):

Key:
Experiment in all cases: Test E greenhouse herbicide test, pre- and postemergence
Assay type in all cases: in vivo
[1] = test system: arrowleaf sida (Sida rhombifolia)
Method in brief: (§1)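 Compounds in surfactant-containing solvent are applied to soil right after sowing (silt loam) and, in parallel, to 1- to 4-leaf plants in a peat-based medium. Weed control is scored visually on a 0 (none) to 100 (complete) scale at 14 to 21 d.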

[2] = test system: barnyardgrass (Echinochloa crus-galli)
Method in brief: as §1

corn (Zea mays) = test system: corn (Zea mays)
Method in brief: as §1

[3] = test system: crabgrass, large (large crabgrass, Digitaria sanguinalis); details: Preemergence
Method in brief: as §1

[4] = test system: dayflower (Virginia (VA) dayflower, Commelina virginica)
Method in brief: as §1

[5] = test system: foxtail, giant (giant foxtail, Setaria faberii); details: Preemergence
Method in brief: as §1

[6] = test system: goosegrass (Eleusine indica); details: Preemergence
Method in brief: as §1

[7] = test system: horseweed (Conyza canadensis)
Method in brief: as §1

[8] = test system: lambsquarters (Chenopodium album); details: Preemergence
Method in brief: as §1

[9] = test system: momingglory (Ipomoea coccinea); details: Preemergence
Method in brief: as §1

[10] = test system: nightshade (eastern black nightshade, Solanum ptycanthum); details: Preemergence
Method in brief: as §1

[11] = test system: panicum, fall (fall panicum, Panicum dichotomiflorum)
Method in brief: as §1

[12] = test system: pigweed, palmer (palmer pigweed, Amaranthus palmeri)
Method in brief: as §1

[13] = test system: ragweed (common ragweed, Ambrosia elatior)
Method in brief: as §1

[14] = test system: sandbur (southem sandbur, Cenchrus echinatus)
Method in brief: as §1

[15] = test system: surinam grass (Brachiaria decumbens); details: Preemergence
Method in brief: as §1

[16] = test system: velvetleaf (Abutilon theophrasti); details: Preemergence
Method in brief: as §1

[17] = 62 g ai/ha, Postemergence, scale 0 to 100 (0 no effect, 100 complete control)
[18] = 62 g ai/ha, Preemergence, scale 0 to 100 (0 no effect, 100 complete control)
[19] = 125 g ai/ha, Postemergence, scale 0 to 100 (0 no effect, 100 complete control)
[20] = 125 g ai/ha, Preemergence, scale 0 to 100 (0 no effect, 100 complete control)
[21] = 250 g ai/ha, Postemergence, scale 0 to 100 (0 no effect, 100 complete control)
[22] = Postemergence, 31 g ai/ha, visual, scale 0 no effect to 100 complete control
[23] = Preemergence, 31 g ai/ha, scale 0 to 100, 0 no effect, 100 complete control
[24] = Preemergence, 250 g ai/ha, visual, scale 0 no effect to 100 complete control
[25] = 62 g ai/ha, scale 0 to 100 (0 no effect, 100 complete control)
[26] = 125 g ai/ha, scale 0 to 100 (0 no effect, 100 complete control)
[27] = 250 g ai/ha, visual, scale 0 no effect to 100 complete control
[28] = 31 g ai/ha, scale 0 to 100, 0 no effect, 100 complete control

CCOC(=O)Oc1c(C)nn(C)c(=O)c1-c1c(C)sc2ccc(C)cc12 [Compound 82]
75: Plant response rating, Horseweed [7, 19] | Plant response rating, Lambsquarters [8, 25] | Plant response rating, Panicum, Fall [11, 19] | Plant response rating, Panicum, Fall [11, 21] | Plant response rating, Pigweed, Palmer [12, 19] | Plant response rating, Sandbur [14, 21] | Plant response rating, Sandbur [14, 24] | Plant response rating, Velvetleaf [16, 25]
0: Plant response rating, Barnyardgrass [2, 23] | Plant response rating, Corn (corn (Zea mays); [17]) | Plant response rating, Corn (corn (Zea mays); [18]) | Plant response rating, Corn (corn (Zea mays); [19]) | Plant response rating, Corn (corn (Zea mays); [20]) | Plant response rating, Corn (corn (Zea mays); [21]) | Plant response rating, Corn (corn (Zea mays); [22]) | Plant response rating, Corn (corn (Zea mays); [23]) | Plant response rating, Dayflower, VA [4, 23] | Plant response rating, Sandbur [14, 23] | Plant response rating, Velvetleaf [16, 28]
65: Plant response rating, Arrowleaf Sida [1, 22] | Plant response rating, Dayflower, VA [4, 21] | Plant response rating, Foxtail, Giant [5, 25] | Plant response rating, Panicum, Fall [11, 17] | Plant response rating, Pigweed, Palmer [12, 21] | Plant response rating, Surinam Grass [15, 25]
70: Plant response rating, Arrowleaf Sida [1, 17] | Plant response rating, Arrowleaf Sida [1, 18] | Plant response rating, Crabgrass, Large [3, 25] | Plant response rating, Goosegrass [6, 26] | Plant response rating, Horseweed [7, 17] | Plant response rating, Morningglory [9, 28] | Plant response rating, Panicum, Fall [11, 22] | Plant response rating, Sandbur [14, 19]
98: Plant response rating, Lambsquarters [8, 28] | Plant response rating, Nightshade [10, 25] | Plant response rating, Nightshade [10, 26] | Plant response rating, Panicum, Fall [11, 20] | Plant response rating, Velvetleaf [16, 27]
40: Plant response rating, Barnyardgrass [2, 17] | Plant response rating, Barnyardgrass [2, 24] | Plant response rating, Dayflower, VA [4, 22]
95: Plant response rating, Arrowleaf Sida [1, 24] | Plant response rating, Foxtail, Giant [5, 27] | Plant response rating, Panicum, Fall [11, 18] | Plant response rating, Velvetleaf [16, 26]
100: Plant response rating, Horseweed [7, 18] | Plant response rating, Horseweed [7, 20] | Plant response rating, Horseweed [7, 24] | Plant response rating, Lambsquarters [8, 26] | Plant response rating, Lambsquarters [8, 27] | Plant response rating, Morningglory [9, 27] | Plant response rating, Nightshade [10, 27] | Plant response rating, Panicum, Fall [11, 24] | Plant response rating, Pigweed, Palmer [12, 20] | Plant response rating, Pigweed, Palmer [12, 24] | Plant response rating, Ragweed [13, 20] | Plant response rating, Ragweed [13, 24]
60: Plant response rating, Dayflower, VA [4, 19] | Plant response rating, Horseweed [7, 22] | Plant response rating, Pigweed, Palmer [12, 17] | Plant response rating, Sandbur [14, 20]
20: Plant response rating, Arrowleaf Sida [1, 23] | Plant response rating, Goosegrass [6, 28]
80: Plant response rating, Arrowleaf Sida [1, 19] | Plant response rating, Crabgrass, Large [3, 26] | Plant response rating, Horseweed [7, 21] | Plant response rating, Morningglory [9, 25] | Plant response rating, Ragweed [13, 18]
25: Plant response rating, Goosegrass [6, 25]
85: Plant response rating, Arrowleaf Sida [1, 20] | Plant response rating, Ragweed [13, 22] | Plant response rating, Ragweed [13, 23] | Plant response rating, Surinam Grass [15, 26]
30: Plant response rating, Barnyardgrass [2, 20] | Plant response rating, Barnyardgrass [2, 22] | Plant response rating, Foxtail, Giant [5, 28]
90: Plant response rating, Arrowleaf Sida [1, 21] | Plant response rating, Crabgrass, Large [3, 27] | Plant response rating, Goosegrass [6, 27] | Plant response rating, Horseweed [7, 23] | Plant response rating, Morningglory [9, 26] | Plant response rating, Nightshade [10, 28] | Plant response rating, Panicum, Fall [11, 23] | Plant response rating, Pigweed, Palmer [12, 18] | Plant response rating, Pigweed, Palmer [12, 23] | Plant response rating, Ragweed [13, 17] | Plant response rating, Ragweed [13, 19] | Plant response rating, Ragweed [13, 21] | Plant response rating, Surinam Grass [15, 27]
35: Plant response rating, Dayflower, VA [4, 24] | Plant response rating, Sandbur [14, 18] | Plant response rating, Surinam Grass [15, 28]
15: Plant response rating, Barnyardgrass [2, 18]
5: Plant response rating, Corn (corn (Zea mays); [24]) | Plant response rating, Dayflower, VA [4, 18] | Plant response rating, Dayflower, VA [4, 20]
50: Plant response rating, Barnyardgrass [2, 19] | Plant response rating, Barnyardgrass [2, 21] | Plant response rating, Dayflower, VA [4, 17] | Plant response rating, Foxtail, Giant [5, 26] | Plant response rating, Pigweed, Palmer [12, 22] | Plant response rating, Sandbur [14, 22]
